# Earlier results in patent publication US6977083B1, “Bioadhesive tablet containing testosterone/testosterone ester mixtures and method for producing a predetermined testosterone time-release profile with same” (Jenapharm GmbH & Co. KG, priority 1998, dated 2005).
# Settings: after oral or parenteral administration
smiles,measurement,value
C[C@]12CC[C@H]3[C@@H](CCC4=CC(=O)CC[C@@]43C)[C@@H]1CC[C@@H]2O [testosterone],plasma half-life,about 10 minutes
